Assay results taken from patent US8455251B2, “Method for isolating and culturing adult stem cells derived from human amniotic epithelium” (RNL Bio Co., Ltd., priority 2007, dated 2013).

Experiments:
Format in all cases: cell-based, human
[1] = tested on: amniotic epithelial cells; assay: Isolation of amniotic epithelial cells from amniotic tissue, living cells counted by trypan blue
Experimental: 5 g of amniotic tissue was weighed and washed with HBSS. For stable isolation of amniotic epithelial cells, the washing process was carried out using HBSS buffer more similar to the constituents of the human body rather than using general PBS. The washed amniotic tissue was transferred into a 50-ml tube, and 10 mM DTT was added thereto. After treatment with DTT for 30 minutes, the supernatant was discarded, the amniotic tissue was finely cut, and the finely cut amniotic tissue was treated with fresh 0.05% trypsin-EDTA at 37° C. for 42 minutes under stirring, thus chemically degrading the tissue. The chemically degraded tissue was vortexed for 1 minute, and then it was primarily filtered through a 1-mm mesh and secondarily filtered through a 100-μm mesh, thus removing non-degraded tissue. The filtered tissue was centrifuged at 1800 rpm for 10 minutes. The single cell pellets at the bottom were well suspended, thus obtaining amniotic epithelial cells. Living cells were visually counted under a microscope using a hemocytometer according to trypan blue dye method and, as a result, the number of cells counted immediately after isolation was 3.72×10^7 cells (FIG. 1 (A)). On the other hand, in the case in which amniotic epithelial cells were isolated from amniotic tissue by treatment with trypsin alone without the addition of DTT, the number of cells counted immediately after isolation was 9.25×10^5 cells (FIG. 1 (B)).

[2] = tested on: amniotic epithelial cell-derived adult stem cells; assay: Culture and subculture of amniotic epithelial cells in the presence of ROCK inhibitor; conditions: 10 μM ROCK inhibitor added 4 days after isolation of the amniotic epithelial cells, FIG. 2
Experimental: The obtained amniotic epithelial cells were cultured in a medium (Gibco) consisting of a 1:1 mixture of DMEM (Dulbecco modified Eagle medium) and F-12 (nutrient mixture) to which FBS, ascorbic acid, epidermal growth factor, insulin, an antibiotic and 10 μM of ROCK inhibitor Y-27632 have been added at the concentrations shown in Table 2 below. After 3 days of culture, the adult stem cells derived from the cultured amniotic epithelial cells were washed with HBSS buffer, and then incubated with Tryple-express (Gibco) or 0.25% trypsin-EDTA at 37° C. for 10 minutes. An FBS-containing medium was added thereto to inactivate trypsin, and then 5×10^6 stem cells derived from the amniotic epithelial cells were obtained and seeded into a fresh medium and subcultured. For each reseeding for subcultures, 10 μM of ROCK inhibitor was added to each fresh medium.

[3] = tested on: amniotic epithelial cell-derived adult stem cells; assay: Proliferation of stem cells at various concentrations of ROCK inhibitor; design: proliferation of the cells: dose or concentration left out as unconfirmed
Experimental: In order to examine the proliferation potential of amniotic epithelial cell-derived adult stem cells at various concentrations of ROCK inhibitor, the amniotic epithelial cells obtained in Example 1 were subcultured in DMEM/F-12 media containing FBS, ascorbic acid, epidermal growth factor, insulin and an antibiotic, to which ROCK inhibitor Y-27632 has been added at various concentrations of 100 μM, 1 μM, 100 nM and 10 nM. After 1 day and 4 days of the subculture, the optimum ROCK inhibitor Y-27632 concentration for the culture of the adult stem cells was examined.

[4] = tested on: amniotic epithelial cell-derived adult stem cells; assay: Effect of the addition of ROCK inhibitor on proliferation of stem cells (Comparative Example 1); conditions: 10 μM; observed 1, 2 and 3 days after seeding
Experimental: In order to examine the effect of ROCK inhibitor, 4×10^6 amniotic epithelial cells obtained in Example 1 were subcultured in a DMEM/F-12 medium containing FBS, ascorbic acid, epidermal growth factor, insulin and an antibiotic for 4 days. Then, the cells were seeded into each of a medium containing 10 μM of the ROCK inhibitor Y-27632 and a medium containing no ROCK inhibitor and were observed 1 day, 2 days and 3 days after seeding.

[5] = tested on: amniotic epithelial cell-derived adult stem cells; assay: Proliferation of stem cells according to ROCK inhibitor treatment period
Experimental: In order to further improve the proliferation ability of the amniotic epithelial cells obtained in Example 1, the method used in the embryonic stem cell study (Watanabe et al., Nature Biotechnology, 25:681, 2007) and the method of adding ROCK inhibitor during the culture were compared. In other words, the culture in which 10 μM of ROCK inhibitor was added only before reseeding was compared with the culture in which the ROCK inhibitor was added even after reseeding.

Molecule: O[C@H](CS)[C@H](O)CS (racemic) [DTT, dithiothreitol]
- number of cells counted immediately after isolation ([1]; 5 g amniotic tissue, 10 mM DTT 30 minutes, then 0.05% trypsin-EDTA 37° C. 42 minutes): 3.72×10^7 cells
- number of isolated amniotic epithelial cells and number of cells after culture, versus trypsin alone ([1]; DTT and trypsin (FIG. 1 A, C) versus trypsin alone (B, D)): significantly larger

Molecule: CC(N)C1CCC(C(=O)Nc2ccncc2)CC1 (stereo not drawn) [ROCK inhibitor, Y-27632]
- number of the adult stem cells [2]: rapidly increased
- degree of proliferation ([3]; 10 nM, after 1 day and 4 days of subculture, versus untreated control): did not greatly differ from that in the control
- cell morphology / differentiation ([3]; 100 μM, after 1 day and 4 days of subculture): a cell morphology change or cell differentiation appeared
- proliferation of the cells ([3]; after 1 day and 4 days of subculture): significantly increased
- most preferred concentration for the culture of the adult stem cells ([3]; tested at 100 μM, 1 μM, 100 nM and 10 nM): about 10 μM
- apoptosis of the amniotic epithelial cells [4]: inhibited
- proliferation of adult stem cells [4]: significantly increased
- proliferation ability of the adult stem cells ([5]; case (A): 10 μM ROCK inhibitor only before reseeding, cultured 1 day): clearly increased compared to the control
- proliferation ability of adult stem cells ([5]; case (B): ROCK inhibitor continuously added during reseeding and culture, 1 day): superior compared to the case (A)

B1: trypsin: 0.05% trypsin-EDTA (Gibco) used to isolate single cells from amniotic tissue (protein, UniProt P00761 9-231, looked up)
Trypsin: IVGGYTCAANSIPYQVSLNSGSHFCGGSLINSQWVVSAAHCYKSRIQVRLGEHNIDVLEGNEQFINAAKIITHPNFNGNTLDNDIMLIKLSSPATLNSRVATVSLPRSCAAAGTECLISGWGNTKSSGSSYPSLLQCLKAPVLSDSSCKSSYPGQITGNMICVGFLEGGKDSCQGDSGGPVVCNGQLQGIVSWGYGCAQKNKPGVYTKVCNYVNWIQQTIAAN
modifications: with EDTA
notes: 0.05% trypsin-EDTA (Gibco) used to isolate single cells from amniotic tissue
- number of cells counted immediately after isolation ([1]; treatment with trypsin alone without the addition of DTT): 9.25×10^5 cells
